Test results from patent US8653304B2, “2,3-dihydro-1H-indene-2-yl urea derivative and pharmaceutical application of same” (Toray Industries, Inc., priority 2009, dated 2014).

Columns and labels:
[1] = Metabolic stability in human CYP (human liver microsomes); assay type: in vitro ADME; details: human liver microsomes 0.5 mg/mL, NADPH, 37° C., compound 2 μM
Method: Each test compound was mixed at a concentration of 2 μM with a phosphate buffer solution containing Human liver microsomes (Xenotech) in an amount of 0.5 mg/mL. Thereafter, NADPH was added thereto, and the obtained mixture was allowed to react at 37° C. for up to 30 minutes. The reaction was terminated by adding acetonitrile, and then the resultant was centrifuged for 10 minutes at 4° C. to collect a supernatant. The supernatant was pretreated by methanol extraction method, and the concentration of the compound was analyzed by LC/MS/MS (ESI positive mode). The compound remaining rate was calculated from the obtained concentration of the compound.

[2] = tested on: colonic disorders in DSS-induced chronic colitis model; test: Colonic disorders in DSS-induced chronic colitis model; assay type: in vivo; details: BALB/c mouse, oral 10 mg/kg once Day 27, twice a day Day 28-31; scores Day 28-32
Source text: The action of Compound (I) on colonic disorders in inflammatory bowel disease models was studied. As the inflammatory bowel disease models, models partially modified from a TNBS-induced colitis model and a DSS-induced chronic colitis model described in documents (Gastroenterology, 1989, Vol. 96, pp. 29-36 and Am. J. Physiol. Gastrointest. Liver Physiol., 2004, Vol. 287, pp. G115-124) were used.
To each BALB/cCrSlc mouse (female, 9-week old, Japan SLC, Inc.), DSS (Molecular Weight: 36-50 kDa; MP Biomedicals) dissolved in sterile ultrapure water was administered via free drinking for 5 days from the day of the start of the administration via drinking water (this day was considered as Day 0 after the start of the administration via drinking water), and then switched to administration of sterile ultrapure water via free drinking for 5 days. This cycle was repeated again, and DSS was further administered via free drinking for another 7 days to produce the colitis model. As an index of colitis symptoms, stool consistency scores were used. The stool consistency scores were based on the following criteria: normal stool was defined as score 0; loose stool was defined as score 2; and diarrhea was defined as score 4. […]

human p38 MAPK α = human p38 MAPK α (Homo sapiens (Human), UniProt Q16539); test: Evaluation of p38 MAPK inhibitory activity (Alpha Screen, ATF2 phosphorylation); assay type: biochemical; details: p38α/SAPK2a 1.5 nM, ATP 100 μM, biotinylated ATF2 30 nM
Sequence of human p38 MAPK α (Q16539 whole entry): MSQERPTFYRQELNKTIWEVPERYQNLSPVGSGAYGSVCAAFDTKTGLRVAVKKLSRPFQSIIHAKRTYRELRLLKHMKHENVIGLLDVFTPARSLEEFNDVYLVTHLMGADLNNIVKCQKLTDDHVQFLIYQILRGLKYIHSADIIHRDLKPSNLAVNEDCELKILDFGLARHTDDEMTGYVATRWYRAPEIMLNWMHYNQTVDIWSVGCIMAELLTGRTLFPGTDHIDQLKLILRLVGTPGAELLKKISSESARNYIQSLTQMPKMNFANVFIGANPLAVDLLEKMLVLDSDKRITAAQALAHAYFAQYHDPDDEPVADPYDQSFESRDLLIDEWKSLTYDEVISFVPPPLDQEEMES
Method: Using human p38 MAPK α, the p38 MAPK inhibitory activity of Compound (I) was studied by a method partially modified from the method described in Current Medicinal Chemistry (2004, No. 11, pp. 721-730).
A solution of each test compound solution in 100% DMSO and a p38α/SAPK2a solution (Final Concentration: 1.5 nM) (Invitrogen) were added to a 384-well plate, and then the plate was incubated at room temperature in a dark place for 1 hour. Thereafter, ATP (Final Concentration: 100 μM), which is a phosphate donor, and biotinylated ATF2 (Final Concentration: 30 nM) (upstate), which is a substrate, were added, and the resulting mixture was allowed to react at room temperature in a dark place for 1 hour (the final concentration of DMSO was 0.25%). After the reaction, an anti-phosphorylated ATF2 antibody (Final Concentration: 1 nM) (Cell Signaling), anti-IgG acceptor beads (Final Concentration: 20 μg/mL) (PerkinElmer) and streptavidin donor beads (Final Concentration: 20 μg/mL) (PerkinElmer) were added, and the resultant was incubated at room temperature in a dark place for 1 hour. Using a microplate analyzer (Fusion-α, Packard) in Alpha Screen method (Amplified Luminescent Proximity Homogeneous Assay), the light emission was detected. The IC50 value of each compound was calculated by sigmoidal dose-response regression using Prism 4.02 (GraphPad Software, Inc.).

[3] = Pharmacokinetic evaluation in mouse (oral); assay type: in vivo; details: male; BALB/c mouse, oral 0.8 mg/kg, plasma
Method: Each test compound was dissolved in 10% HP-β-CD (Nihon Shokuhin Kako Co., Ltd.) to prepare a solution to be administered (0.08 mg/mL, as a solution to be administered for oral administration). To each BALB/c mouse (male, 7-week old, Charles River Laboratories Japan, Inc.), each compound was orally administered at a dose of 0.8 mg/kg. Blood was collected from the jugular vein or heart with time up to 24 hours after the administration. The obtained blood was centrifuged to collect blood plasma. The blood plasma was pretreated by methanol extraction method, and the concentration of the compound was analyzed by LC/MS/MS (ESI positive mode).
In this table, Cmax represents a maximum plasma concentration; and AUC0-∞ represents an area under the curve of the plasma concentration of the compound from after the compound administration to infinite time.

ICR mouse = test: Evaluation of hepatotoxicity in mouse (plasma AST); assay type: in vivo; details: oral 500 mg/kg, plasma on the day after administration
Method: Compound (I) was suspended in 0.5% methylcellulose (Wako Pure Chemical Industries, Ltd.) to prepare a 50 mg/mL solution to be administered. To each ICR mouse (male, 7-week old, Charles River Laboratories Japan, Inc.), each compound was orally administered at a dose of 500 mg/kg. On the day after the administration, blood was collected from the posterior vena cava, and the obtained blood was centrifuged to collect blood plasma. AST (aspartate aminotransferase) value, which is a marker of hepatic disorders in blood plasma, was measured with a biochemistry automatic analyzer (Hitachi 7070, Hitachi, Ltd.). Comparative Compound 4 was suspended in 0.5% sodium carboxymethylcellulose (Wako Pure Chemical Industries, Ltd.) before use.

Question: With `COc1c(NC(=O)N[C@@H]2Cc3ccccc3[C@@H]2O)cc(C(C)(C)C)cc1[C@@H](O)C(F)(F)F` [Compound 46b, 1-(5-tert-butyl-2-methoxy-3-((R)-2,2,2-trifluoro-1-hydroxyethyl)phenyl)-3-((1S,2R)-1-hydroxy-2,3-dihydro-1H-indene-2-yl)urea] as the compound, how does the microsomal CLint at 2 μM [1] read?
Answer: 94 µL/min/mg

Question: And the “stool consistency score (total)” value [2]?
Answer: 5.7±0.8

Question: What about the IC50 (human p38 MAPK α) of the same compound?
Answer: 15 nM

Question: What about the AUC(0-inf) [3] of the same compound?
Answer: 588 ng·h/mL

Question: What about the Cmax [3] of the same compound?
Answer: 561 ng/mL

Question: What about the AST value (ICR mouse) of the same compound?
Answer: 47 U/L
